In article PMC7281206, “Cysteine Cathepsins Inhibition Affects Their Expression and Human Renal Cancer Cell Phenotype” (Cancers, 2020):
*: point of attachment. CH2F = FC*

How the values were obtained:
[1] = tested on: human recombinant CtsB; test: Fluorescent protease activity assay, recombinant CtsB; type: biochemical; conditions: 20 nM CtsB, 50 μM Ac-PLVQ-AMC, inhibitor 2 μM; 0.1 M sodium acetic buffer pH 4.6, 12 min, Ex/Em 353/442 nm
Method: Ac-PLVE-FMK and Ac-VLPE-FMK inhibitory properties were evaluated against human recombinant CtsL and B. These recombinant enzymes were expressed in E. coli via plasmid transformation and further purification, using nickel-nitrilotriacetic acid (Ni-NTA) sepharose. Gel zymography assay was used to provide a preliminary evaluation of the ability of these recombinant proteins to degrade the gelatin substrate previously embedded in the gel (Supplementary Figure S1). Following Coomassie staining, the Cts were detectable as single bands. As expected, a translucent area was evident, due to the substrate digestion in the proximity of the proteins. Then, the recombinant proteins were tested for their ability to digest the Triticain-α substrate Ac-PLVQ via fluorescent protease activity assay, previously optimized by our group. This probe was conjugated with the fluorogenic chromophore 7-amino-4-methylcoumarin (Ac-PLVQ-AMC). After proteolytic cleavage, it emits a detectable fluorescent signal.
Total RNA extract from retinoblastoma […] cells was used to obtain cDNA. A pair of oligonucleotides ([…] and […]) was used for the amplification of DNA fragment containing CtsB, the product of which was ligated into pET15b (Merck Millipore, Billerica, MA, USA) using NdeI and XhoI. DNA fragment containing CtsL was amplified using a pair of oligonucleotides ([…] and […]) and ligated into pET28a (+) (Merck Millipore, Billerica, MA, USA) using NheI and HindIII. […]
The activity of recombinant CtsL and B was detected by the hydrolysis of the fluorogenic substrate Ac-Pro-Leu-Val-Gln- 7-amino-4-methylcoumarin (AMC) (Pepmic Suzhou Jiangsu, China). […] The substrate was added to a final concentration of 50 μM, and its hydrolysis was continuously measured for 12 min using a CLARIOstar® Plus plate reader (BMG Labtech Ortenberg Baden-Württemberg, Germany) at excitation and emission wavelengths of 353 and 442 nm, respectively.

[2] = tested on: E-cadherin in 769-P cells; test: E-cadherin protein expression (western blot), 769-P; type: cell-based, human
Method: These properties could be the result of the modulation of the effectors controlling EMT, as previously shown in other tumor models. To test this hypothesis, the cells were treated with the inhibitors for 24, 48, and 72 h by changing the media every day, and they were tested for E-cadherin and SNAIL1 expression (Figure 6; detail information of western blots can be seen in Supplementary Figure S7).  Figure 6 Effects of the peptides on E-cadherin and SNAIL1 protein expression: (a,b) protein expression of E-cadherin and SNAIL1 in 769-P and (c,d) A498 cells after 24, 48, and 72 h of treatment with the peptides. Data are represented as mean ± SD of at least three replicates. Significance was calculated through one-way ANOVA, followed by Dunnet’s test. Cells were seeded in RPMI containing 10% FBS and cultured for 24 h. Next, 30 µM of inhibitors were added to the culture medium and incubated for 24, 48, and 72 h. Control cells were treated with 0.01% DMSO. At all time points the samples were lysed in 50 mM Tri-HCl (pH 8.0), 100 mM NaCl, 0.5% NP-40, 1% Triton X-100, 1× protease inhibitor cocktail (ThermoFisher, Waltham, MA, USA). The 50 µg of protein lysates were separated by electrophoresis on a 12% SDS-PAGE gel and transferred to the PFDF membranes. The expression of cysteine Cts, LAMP-1, E-cadherin, and SNAIL1 were identified by a reaction with specific primary antibodies (CtsB-Ab190077, Abcam, UK; CtsL-Ab95154, Abcam, UK; CtsW Ab191083; LAMP-1- Ab24170, Abcam, UK; SNAIL1 Ab216347, Abcam, UK and e-cadherin-612131, BD Sciences Franklin Lakes, NJ, USA) which were resuspended in 5% non-fat milk in PBST (all Cts 1:3000, LAMP-1, SNAIL1 and E-cadherin 1:1000) and incubated O/N. The next day, the membranes were washed three times with PBST and incubated for 1 h with secondary antibodies (P-GAR Iss (Goat pAb to rabbit IgG (HRP), Abcam, UK or Rabbit Ab to mouse, Abcam, UK; both 1:5000) in 5% non-fat milk in PBST. After an additional wash (three times with PBS), reactive bands were detected by chemiluminescence (Bio-Rad, Irvine, CA, USA). As a loading control, the membranes were incubated with a polyclonal anti-tubulin antibody (1:5000; Ab52866, Abcam, UK) identically.

Substance	Inhibition of Ac-PLVQ-AMC cleavage (fluorescent signal) [1]	E-cadherin protein expression ([2]; 72 h)	E-cadherin protein expression ([2]; first 48 h)
Ac-PLVE-CH2F [Ac-PLVE-FMK]	the intensity of the fluorescent signal was significantly affected	further increased in 769P cells	increased the protein expression of E-cadherin in the first 48 h in both the cell lines
Ac-VLPE-CH2F [Ac-VLPE-FMK]	the intensity of the fluorescent signal was significantly affected	further increased in 769P cells	increased the protein expression of E-cadherin in the first 48 h in both the cell lines
